In US20260306496A1, “CDK2 INHIBITOR PYRAZOLOPYRIMIDINE COMPOUNDS” (ALEKSIA THERAPEUTICS, INC., priority 2023, published 2026):
Read-outs that look alike come from different tables or passages of the source. One block for each molecule: values may come before it.

Target: CDK2/CCNE1 (Homo sapiens, UniProt P24941)
Assay: CDK2 homogeneous time-resolved fluorescence (HTRF) assay
Format: biochemical
Conditions: 3 nM CDK2/CCNE1, 1 mM ATP, 50 nM ULight-eIF4E-binding protein 1 (Thr37/46) peptide, 60 min at 23° C.
Experimental: A CDK homogeneous time-resolved fluorescence (HTRF) assay was used to assess the potency of the compounds described herein.
To an untreated 384-well microtiter plate (ProxiPlate) was added 100 nL 100× test compound in DMSO and 5 μL 2×CDK enzyme in assay buffer (50 mM HEPES, 1 mM EGTA, 10 mM MgCl2, 0.01% Tween 20, 2 mM DTT). The plate was centrifuged at 800 RPM for 1 min then incubated for 20 min at 23° C. 2.5 μL per well of 4×ATP and 2.5 μL 4×ULight™-eIF4E-binding protein 1 (Thr37/46) Peptide) substrate were added to all wells. After addition, the plates were centrifuged at 800 RPM for 1 min. The plates were incubated at 23° C. for 60 min. 5 μL per well 3×EDTA solution were added to each well to stop the reaction. 2.5 μL 7×LANCE Ultra Europium-anti-phospho-eTF4E-binding protein 1 (Thr37/46 antibody) were added to each well and the plate was centrifuged for 1 min at 800 RPM. The plate was incubated for 60 min at 23° C. Fluorescence was read at 340 nm excitation and 665 nm emission on an EnVision 2105 fluorescence reader. The final concentrations of reagents in the activity assay were 3 nM CDK2/CCNE1, 1 mM ATP, 50 nM ULight™-eIF4E-binding protein 1 (Thr37/46) Peptide substrate, 1% DMSO, 10 mM EDTA, and 2 nM LANCE Ultra Europium-anti-phospho-eTF4E-binding protein 1 (Thr37/46).
Dose-response titrations were conducted by using an 11-point, three-fold serial dilution scheme typically starting at 1 μM. Signals were reported as fluorescence units at 665 nm or the ratio of fluorescence units at 665 nm/fluorescence units at 615 nm. Signals are referred to below as “Lance signals”.
Using this assay, the IC50 values of example compounds were determined.

[1] = read-out: CDK2/CCNE IC50 >150 nM
[2] = read-out: CDK2/CCNE IC50 <25 nM
[3] = column 25-150 nM, read-out: CDK2/CCNE IC50 25-150 nM

Structure (SMILES): CS(=O)(=O)c1ccc(Nc2ncc3cnn([C@@H]4CC[C@@H](C#N)C4)c3n2)cc1 [Compound 47, (1R,3R)-3-(6-((4-(methylsulfonyl)phenyl)amino)-1H-pyrazolo[3,4-d]pyrimidin-1-yl)cyclopentane-1-carbonitrile]
IC50 [1]: > 150 nM

Structure (SMILES): CS(=O)(=O)c1ccc(Nc2ncc3cnn(C[C@H]4CC[C@H](CCl)CC4)c3n2)cc1 [Compound 48, 1-(((1R,4R)-4-(chloromethyl)cyclohexyl)methyl)-N-(4-(methylsulfonyl)phenyl)-1H-pyrazolo[3,4-d]pyrimidin-6-amine]
IC50 [1]: > 150 nM

Structure (SMILES): CS(=O)(=O)c1ccc(Nc2ncc3cnn(C[C@H]4CC[C@@H](CCl)CC4)c3n2)cc1 [Compound 49, 1-(((1S,4S)-4-(chloromethyl)cyclohexyl)methyl)-N-(4-(methylsulfonyl)phenyl)-1H-pyrazolo[3,4-d]pyrimidin-6-amine]
IC50 [2]: < 25 nM

Structure (SMILES): CS(=O)(=O)c1ccc(Nc2ncc3cnn([C@@H]4CC[C@@H](O)C4)c3n2)cc1 [Compound 50, (1R,3R)-3-(6-((4-(methylsulfonyl)phenyl)amino)-1H-pyrazolo[3,4-d]pyrimidin-1-yl)cyclopentan-1-o1]
IC50 [3]: 25 to 150 nM

Structure (SMILES): CS(=O)(=O)c1ccc(Nc2ncc3cnn([C@@H]4CCC[C@@H](O)C4)c3n2)cc1 [Compound 51, (1R,3R)-3-(6-((4-(methylsulfonyl)phenyl)amino)-1H-pyrazolo[3,4-d]pyrimidin-1-yl)cyclohexan-1-ol]
IC50 [2]: < 25 nM

Structure (SMILES): CS(=O)(=O)c1ccc(Nc2ncc3cnn([C@@H]4CCC[C@H](C#N)C4)c3n2)cc1 [Compound 52, (1S,3R)-3-(6-((4-(methylsulfonyl)phenyl)amino)-1H-pyrazolo[3,4-d]pyrimidin-1-yl)cyclohexane-1-carbonitrile]
IC50 [3]: 25 to 150 nM

Structure (SMILES): CS(=O)(=O)c1ccc(Nc2ncc3cnn(C4CCC(=O)CC4)c3n2)cc1 [Compound 53, 4-(6-((4-(methylsulfonyl)phenyl)amino)-1H-pyrazolo[3,4-d]pyrimidin-1-yl)cyclohexan-1-one]
IC50 [3]: 25 to 150 nM

Structure (SMILES): OCc1cc(Nc2ncc3cnn(CC4CCCCC4)c3n2)ccc1O [Compound 55, 4-((1-(cyclohexylmethyl)-1H-pyrazolo[3,4-d]pyrimidin-6-yl)amino)-2-(hydroxymethyl)phenol]
IC50 [3]: 25 to 150 nM

Structure (SMILES): CN(C)[C@H]1CC[C@@H](Cn2ncc3cnc(NC4CCN(S(C)(=O)=O)CC4)nc32)CC1 [Compound 56, 1-(((1S,4S)-4-(dimethylamino)cyclohexyl)methyl)-N-(1-(methylsulfonyl)piperidin-4-yl)-1H-pyrazolo[3,4-d]pyrimidin-6-amine]
IC50 [3]: 25 to 150 nM

Structure (SMILES): CS(=O)(=O)c1ccc(Nc2ncc3cnn(C[C@@H]4CCC(=O)N4)c3n2)cc1 [Compound 57, (S)-5-((6-((4-(methylsulfonyl)phenyl)amino)-1H-pyrazolo[3,4-d]pyrimidin-1-yl)methyl)pyrrolidin-2-one]
IC50 [1]: > 150 nM

Structure (SMILES): CS(=O)(=O)c1ccc(Nc2ncc3cnn(CCc4ccccc4)c3n2)cc1 [Compound 62, N-(4-(methylsulfonyl)phenyl)-1-phenethyl-1H-pyrazolo[3,4-d]pyrimidin-6-amine]
IC50 [1]: > 150 nM

Structure (SMILES): CS(=O)(=O)c1ccc(Nc2ncc3cnn(CC4CCOCC4)c3n2)cc1 [Compound 63, N-(4-(methylsulfonyl)phenyl)-1-((tetrahydro-2H-pyran-4-yl)methyl)-1H-pyrazolo[3,4-d]pyrimidin-6-amine]
IC50 [1]: > 150 nM

Structure (SMILES): CCN(C)[C@H]1CC[C@@H](Cn2ncc3cnc(Nc4ccc(S(C)(=O)=O)cc4)nc32)CC1 [Compound 75, 1-(((1s,4s)-4-(ethyl(methyl)amino)cyclohexyl)methyl)-N-(4-(methylsulfonyl)phenyl)-1H-pyrazolo[3,4-d]pyrimidin-6-amine]
IC50 [3]: 25 to 150 nM

Next, values leading:

IC50 [3]: 25 to 150 nM
Structure (SMILES): CS(=O)(=O)c1ccc(Nc2ncc3cnn(-c4ccc5cn[nH]c5c4)c3n2)cc1 [Compound 76, 1-(1H-indazol-6-yl)-N-(4-(methylsulfonyl)phenyl)-1H-pyrazolo[3,4-d]pyrimidin-6-amine]

IC50 [1]: > 150 nM
Structure (SMILES): CS(=O)(=O)c1ccc(Nc2ncc3cnn(CC4CCCCC4)c3n2)cc1C(F)(F)F [Compound 79, 1-(cyclohexylmethyl)-N-(4-(methylsulfonyl)-3-(trifluoromethyl)phenyl)-1H-pyrazolo[3,4-d]pyrimidin-6-amine]

IC50 [1]: > 150 nM
Structure (SMILES): CS(=O)(=O)c1ccc(Nc2ncc3cnn(CC4CCCCC4)c3n2)cc1F [Compound 80, 1-(cyclohexylmethyl)-N-(3-fluoro-4-(methylsulfonyl)phenyl)-1H-pyrazolo[3,4-d]pyrimidin-6-amine]

IC50 [3]: 25 to 150 nM
Structure (SMILES): Cn1ncc2cc(-n3ncc4cnc(Nc5ccc(S(C)(=O)=O)cc5)nc43)ccc21 [Compound 81, 1-(1-methyl-1H-indazol-5-yl)-N-(4-(methylsulfonyl)phenyl)-1H-pyrazolo[3,4-d]pyrimidin-6-amine]

IC50 [1]: > 150 nM
Structure (SMILES): Cn1cc2cc(-n3ncc4cnc(Nc5ccc(S(C)(=O)=O)cc5)nc43)ccc2n1 [Compound 82, 1-(2-methyl-2H-indazol-5-yl)-N-(4-(methylsulfonyl)phenyl)-1H-pyrazolo[3,4-d]pyrimidin-6-amine]

IC50 [1]: > 150 nM
Structure (SMILES): CN(CCO)[C@H]1CC[C@H](Cn2ncc3cnc(Nc4ccc(S(C)(=O)=O)cc4)nc32)CC1 [Compound 84, 2-(methyl((1r,4r)-4-((6-((4-(methylsulfonyl)phenyl)amino)-1H-pyrazolo[3,4-d]pyrimidin-1-yl)methyl)cyclohexyl)amino)ethan-1-ol]
